Measured values as given in paper PMC6277767, “Broad and Region-Specific Impacts of the Synthetic Cannabinoid CP 55,940 in Adolescent and Adult Female Mouse Brains” (Frontiers in Molecular Neuroscience, 2018).

Tested on: CD1 female mouse brain lipidome
Assay: Brain-region lipid levels (HPLC/MS/MS lipidomics) 2 h after single i.p. 3 mg/kg CP 55,940 vs vehicle
Type: in vivo
Design: N-arachidonoyl phenylalanine level, Mean / N-stearoyl tryptophan level, Mean / N-stearoyl proline level, Mean / N-stearoyl leucine level, Mean / N-stearoyl phenylalanine level, Mean / N-stearoyl serine level, Mean / N-stearoyl methionine level, Mean: unit: moles per gram
Procedure: The Bloomington Institutional Animal Care and Use Committee of Indiana University reviewed and approved the animal procedures. Female mice from the CD1 strain were utilized to match our study examining THC’s effects on the brain lipidome ([Leishman et al., 2018]). Mice were given a single i.p. injection of either 3 mg/kg CP or 1:1:18 cremophor:ethanol:saline vehicle (please refer to the section “3 mg/kg CP Is Relevant for Synthetic Cannabinoid Abuse and Has Stronger Effects on the Female Mouse Brain Lipidome During Adolescence” for a justification of dose and use of female mice). Three different age groups were given injections: PND 35 and PND 50 adolescents, and adult mice (PND 113). At least eight mice in each age group received CP and at least eight received vehicle. Matching the THC study time course ([Leishman et al., 2018]), mice were sacrificed via rapid decapitation 2 h after injection. Brains were immediately removed and flash-frozen in liquid nitrogen, and then stored at -80°C until dissections were performed. Brains were dissected on an ice-cold dissection plate into the following regions: STR, HIPP, CER, THAL, CTX, HYP, MID, and STEM. These abbreviations for these brain areas will be used exclusively when discussing the results generated by these specific dissections. Each dissected area was immediately placed in liquid nitrogen and then stored at -80°C until used for lipid extraction.
Tissue extracts were performed as previously described ([Bradshaw et al., 2006]; [Stuart et al., 2013]; [Raboune et al., 2014]; [Leishman et al., 2016a],[b], [2017], [2018]). First, samples were shock frozen in liquid nitrogen, weighed, and transferred to a centrifuge tube. The mass of the largest sample was multiplied by 50 to determine how many milliliters of HPLC-grade methanol (Fisher, Fair Lawn, NJ, United States) to add. Then, samples were spiked with 500 pmol deuterium-labeled NAGly (d8NAGly; Cayman Chemical, Ann Arbor, MI, United States). Samples were placed on ice in darkness for 2 h then individually homogenized and centrifuged at 19,000 × g for 20 min at 20°C. Supernatants were diluted with HPLC water (purified in house) to make a solution of 75% water, 25% supernatant. Lipids were partially purified on C18 solid phase extraction columns (Agilent, Palo Alto, CA, United States). A series of four elutions with 1.5 mL of 60%, 75%, 85%, and 100% methanol were collected ([Stuart et al., 2013]; [Leishman et al., 2016a],[b], [2018]).
As previously described ([Bradshaw et al., 2006]; [Tan et al., 2006]; [Smoum et al., 2010]; [Stuart et al., 2013]; [Tortoriello et al., 2013]; [Raboune et al., 2014]; [Leishman et al., 2016a],[b], [2017], [2018]), samples were analyzed using an Applied Biosystems API 3000 triple quadrupole mass spectrometer with electrospray ionization (Foster City, CA, United States). Using an Agilent XDB-C18 reversed phase analytical column and optimized mobile phase gradients, 20 μL from each elution were chromatographed. Two Shimadzu 10ADvp pumps (Columbia, MD, United States) provided the pressure for gradient elution. Mobile phase A: 20% methanol, 80% water (v/v) and 1 mM ammonium acetate (Sigma, St. Louis, MO, United States). Mobile phase B: 100% methanol, 1 mM ammonium acetate. Every method run began with 0% mobile phase B, reached 100% mobile phase B flowing at 0.2 mL/min, and gradually returned to 0% mobile phase B.
This screening library will be referred to as the lipidome when discussing data from this study. HPLC/MS/MS data were analyzed using Analyst software (Applied Biosystems) ([Bradshaw et al., 2006]; [Tan et al., 2006]; [Stuart et al., 2013]; [Tortoriello et al., 2013]; [Raboune et al., 2014]; [Leishman et al., 2016a],[b], [2017], [2018]). Chromatograms (Supplementary Figure 3) were generated by determining the retention time of analytes from the analytical column with a [M-1] or [M+1] parent peak and a fragmentation peak corresponding to the programmed values. […]

[1] = cerebellum, PND 35, 3 mg/kg CP 55,940
[2] = cerebellum, PND35 WT female mice, 3mg/kg CP 55,940
[3] = cortex, PND 50, 3 mg/kg CP 55,940

CCCCCCC(C)(C)c1ccc([C@@H]2C[C@H](O)CC[C@H]2CCCO)c(O)c1 [CP 55,940]
N-oleoyl phenylalanine: Magnitude (x Veh level) [1]: 1.14 x Veh level | N-palmitoyl leucine: Direction (relative to Veh) [1]: ↑ | N-palmitoyl leucine: Magnitude (x Veh level) [1]: 1.52 x Veh level | N-palmitoyl phenylalanine: Direction (relative to Veh) [1]: ↑ | N-palmitoyl phenylalanine: Magnitude (x Veh level) [1]: 1.43 x Veh level | N-palmitoyl proline: Direction (relative to Veh) [1]: ↓ | N-palmitoyl proline: Magnitude (x Veh level) [1]: 0.87 x Veh level | N-palmitoyl serine: Direction (relative to Veh) [1]: ↓ | N-palmitoyl serine: Magnitude (x Veh level) [1]: 0.81 x Veh level | N-palmitoyl tyrosine: Direction (relative to Veh) [1]: ↑ | N-palmitoyl tyrosine: Magnitude (x Veh level) [1]: 1.19 x Veh level | N-palmitoyl valine: Direction (relative to Veh) [1]: ↑ | N-palmitoyl valine: Magnitude (x Veh level) [1]: 1.70 x Veh level | 2-arachidonoyl glycerol level, Mean [2]: 2.68E-10 | 2-linoleoyl glycerol level, Mean [2]: 1.01E-10 | 2-oleoyl glycerol level, Mean [2]: 7.55E-10 | 2-palmitoyl glycerol level, Mean [2]: 3.01E-10 | 6-ketoPGF1α level, Mean [2]: 8.74E-12 | 11-OH-THC level, Mean [2]: BDL | 11-nor-9-carboxyTHC level, Mean [2]: BDL | Arachidonic acid level, Mean [2]: 1.26E-09 | Cannabidiol level, Mean [2]: BDL | Linoleic acid level, Mean [2]: 4.27E-10 | N- stearoyl valine level, Mean [2]: PISSR | N-arachidonoyl GABA level, Mean [2]: 9.02E-12 | N-arachidonoyl alanine level, Mean [2]: 5.29E-12 | N-arachidonoyl dopamine level, Mean [2]: BDL | N-arachidonoyl ethanolamine level, Mean [2]: 1.17E-11 | N-arachidonoyl glycine level, Mean [2]: 2.55E-11 | N-arachidonoyl methionine level, Mean [2]: 8.56E-13 | N-arachidonoyl phenylalanine level, Mean [2]: 1.22E-12 | N-arachidonoyl proline level, Mean [2]: BDL | N-arachidonoyl serine level, Mean [2]: 5.34E-12 | N-arachidonoyl taurine level, Mean [2]: 7.17E-11 | N-arachidonoyl tryptophan level, Mean [2]: PISSR | N-arachidonoyl tyrosine level, Mean [2]: 8.32E-13 | N-docosahexaenoyl GABA level, Mean [2]: 2.27E-12 | N-docosahexaenoyl alanine level, Mean [2]: 3.11E-12 | N-docosahexaenoyl ethanolamine level, Mean [2]: 2.05E-11 | N-docosahexaenoyl glycine level, Mean [2]: 1.34E-11 | N-docosahexaenoyl leucine level, Mean [2]: 7.43E-13 | N-docosahexaenoyl methionine level, Mean [2]: 5.43E-13 | N-docosahexaenoyl phenylalanine level, Mean [2]: 1.05E-12 | N-docosahexaenoyl proline level, Mean [2]: BDL | N-docosahexaenoyl serine level, Mean [2]: 2.79E-11 | N-docosahexaenoyl tryptophan level, Mean [2]: PISSR | N-docosahexaenoyl tyrosine level, Mean [2]: 1.57E-12 | N-docosahexaenoyl valine level, Mean [2]: BDL | N-linoleoyl GABA level, Mean [2]: 7.16E-13 | N-linoleoyl alanine level, Mean [2]: 1.26E-12 | N-linoleoyl ethanolamine level, Mean [2]: 2.95E-11 | N-linoleoyl glycine level, Mean [2]: 3.27E-12 | N-linoleoyl leucine level, Mean [2]: 3.65E-13 | N-linoleoyl methionine level, Mean [2]: PISSR | N-linoleoyl phenylalanine level, Mean [2]: 2.56E-13 | N-linoleoyl proline level, Mean [2]: BDL | N-linoleoyl serine level, Mean [2]: 4.55E-11 | N-linoleoyl tryptophan level, Mean [2]: PISSR | N-linoleoyl tyrosine level, Mean [2]: PISSR | N-linoleoyl valine level, Mean [2]: BDL | N-nervonoyl valine level, Mean [2]: BDL | N-oleoyl GABA level, Mean [2]: 3.82E-12 | N-oleoyl alanine level, Mean [2]: 6.55E-12 | N-oleoyl dopamine level, Mean [2]: BDL | N-oleoyl ethanolamine level, Mean [2]: 7.98E-11 | N-oleoyl glycine level, Mean [2]: 1.52E-11 | N-oleoyl leucine level, Mean [2]: 1.49E-12 | N-oleoyl methionine level, Mean [2]: 1.2E-12 | N-oleoyl phenylalanine level, Mean [2]: 1.43E-12 | N-oleoyl proline level, Mean [2]: 3.42E-13 | N-oleoyl serine level, Mean [2]: 2.53E-10 | N-oleoyl tryptophan level, Mean [2]: 1.48E-13 | N-oleoyl tyrosine level, Mean [2]: 7.24E-13 | N-oleoyl valine level, Mean [2]: PISSR | N-palmitoyl GABA level, Mean [2]: 7.17E-12 | N-palmitoyl alanine level, Mean [2]: 7.87E-12 | N-palmitoyl ethanolamine level, Mean [2]: 3.88E-11 | N-palmitoyl glycine level, Mean [2]: 2.65E-11 | N-palmitoyl leucine level, Mean [2]: 2.75E-12 | N-palmitoyl methionine level, Mean [2]: 1.86E-12 | N-palmitoyl phenylalanine level, Mean [2]: 2.82E-12 | N-palmitoyl proline level, Mean [2]: 7E-13 | N-palmitoyl serine level, Mean [2]: 5.23E-11 | N-palmitoyl tryptophan level, Mean [2]: 3.12E-13 | N-palmitoyl tyrosine level, Mean [2]: 1.58E-12 | N-palmitoyl valine level, Mean [2]: 1.73E-13 | N-stearoyl GABA level, Mean [2]: 5.88E-12 | N-stearoyl alanine level, Mean [2]: 1.31E-11 | N-stearoyl ethanolamine level, Mean [2]: 1.11E-11 | N-stearoyl glycine level, Mean [2]: 1.37E-11 | N-stearoyl leucine level, Mean [2]: 9.56E-13 | N-stearoyl methionine level, Mean [2]: 1.59E-12 | N-stearoyl phenylalanine level, Mean [2]: 1.92E-12 | N-stearoyl proline level, Mean [2]: 3.97E-13 | N-stearoyl serine level, Mean [2]: 2.93E-11 | N-stearoyl tryptophan level, Mean [2]: 6.79E-13 | N-stearoyl tyrosine level, Mean [2]: 8.44E-14 | Oleic acid level, Mean [2]: 1.03E-09 | PGE2 level, Mean [2]: 4.01E-10 | PhosphoLEA level, Mean [2]: 1.04E-11 | THC level, Mean [2]: BDL | 2-linoleoyl glycerol Direction (relative to Veh) [3]: ↓ | 2-oleoyl glycerol, Direction (relative to Veh) [3]: ↓
